According to patent US10660874B2, “Ecteinamycin, compositions and uses thereof” (Wisconsin Alumni Research Foundation, priority 2014, dated 2020):
In brackets after ≈: the same amount, converted by molar mass.

What was measured:
[1] = system: S. aureus (ATCC #29213) cells; test: Membrane depolarization assay (DiOC2(3), flow cytometry); type: cell-based; settings: 6 μg/mL, 15 minutes
Description: S. aureus (ATCC #29213) cells were grown to log phase (14 h) in Mueller Hinton Broth cation-adjusted (MHB50) and were diluted to 0.07 OD600 with media. One mL aliquots were transferred to 1.5 mL centrifuge tubes and treated with the following in triplicate: 10 μL DMSO (control), 10 μL of 600 μg/mL ecteinamycin, 10 μL of 3.2 mg/mL ecteinamycin (1), 10 μL of 500 μM carbonyl cyanide m-chlorophenythydrazone (CCCP), and 10 μL of 3.2 mg/mL rifampicin. Additionally, each tube received 10 μL of 3 mM DiOC2(3) (3,3′-diethyloxacarbocyanine iodide). The tubes were shaken for 15 minutes at room temperature. The cells were then analyzed with a FACSCalibur (BD Biosciences) flow cytometer and CellQuestPro software (BD Biosciences). Collected data represent the geometric means of fluorescence of 40,000 gated events.
Flow cytometry was used to determine if ecteinamycin, like other polyether ionophore antibiotics, depolarizes cell membranes. 3,3′-diethyloxacarbocyanine iodide (“DiOC2(3)”) fluoresces green in bacterial cells but shifts to red when the cell membrane is depolarized. Therefore, the ratio of red to green fluorescence is indicative of the membrane potential. S. aureus ATCC […] cells were treated with ecteinamycin at concentrations of 6 and 32 μg/mL.
All cells except the DMSO negative control were treated with DiOC2(3) and analyzed by flow cytometry. […]

MRSA (ATCC #33591) = test: MIC, dilution antimicrobial susceptibility test; type: cell-based, Methicillin-resistant Staphylococcus aureus; settings: Staphylococcus aureus, 18 h
Description: (§1) Ecteinamycin was tested for antibacterial activity against C. difficile (ATCC BAA-1870), MRSA (ATCC #33591), MSSA (ATCC #29213), E. coli (ATCC #25922), P. aeruginosa (ATCC #27853), and VRE (ATCC), and MICs were determined using a dilution antimicrobial susceptibility test for aerobic (MRSA, MSSA, E. coli, P. aeruginosa, and VRE) and anaerobic (C. difficile) bacteria. Ecteinamycin was dissolved in DMSO, serially diluted to 10 concentrations (0.0313-32 μg/mL), and tested in a 96-well plate. […] Ecteinamycin and vancomycin were tested in triplicate. Six untreated media controls were included on each plate. For MRSA, MSSA, E. coli, and P. aeruginosa, the plates were incubated at 33° C. for 18 h. For C. difficile, the plate was incubated at 36° C. for 48 h anaerobically and then read visually using a mirror apparatus. All manipulations to the plate were done inside the anaerobe chamber. The MIC was determined as the lowest concentration that inhibited visible growth.

[2] = Lethality of intravenous injection in mice; type: in vivo; settings: 5 mg/kg IV
Description: Eight-to-nine-week-old FVB female mice weighing 20.5 to 25.6 g were used for all studies. Animals were maintained in accordance with the American Association for Accreditation of Laboratory Care criteria. Animal studies were approved by the University of Wisconsin Animal Care Committee.
Ecteinamycin was formulated with polyethylene glycol (PEG) 300, 25 mM Tris (1:1), pH 8.9. Mice were treated orally at 5 mg/kg or by retro-orbital intravenous injection at 2.5 mg/kg. Retro-orbital intravenous injection at 5 mg/kg was lethal. After 30 mins and 1 h, approximately 400 μL of blood was collected from the chest cavity in BD microtainer tubes with lithium heparin. Blood was centrifuged at 10,000 rpm for 10 mins Fifty μL of supernatant was added to 200 μL of acetonitrile (containing 0.1% formic acid) in a new polypropylene tube, vortexed for 1 min, and centrifuged for 10 mins at 14,000 rpm at 4° C. One hundred μL was transferred to a 96 well polypropylene microplate, 100 μL of H2O was added, and the plate was covered and shaken for 1 min and placed in the autosampler for analysis. […] Sample quantitation was determined by weighted (R^2) linear regression using a 9-point curve. […] The % oral bioavailability was calculated from the concentration of ecteinamycin (adjusted for dose) in plasma between oral and IV dose: [ecteinamycinoral]/[ecteinamycinIV]×100. […]

[3] = system: C. difficile (ATCC BAA-1870); test: MIC, anaerobic dilution antimicrobial susceptibility test; type: cell-based; settings: Clostridioides difficile
Description: as §1

In the case of C=C1OC(=O)C(C(=O)CC2OC(C(C)C(O)C(CC)C(=O)C(C)(O)C3CCC(CC)(C4CCC(O)(C(C)OC)C(C)O4)O3)C(C)CC2C)=C1O (centres unmarked) [ecteinamycin], the “membrane depolarization (ratio of red to green fluorescence)” value [1] is reported as “demonstrated membrane depolarization”, the MIC (MRSA (ATCC #33591)) is reported as 0.125 µg/mL (≈ 0.176 µM) and the “lethality of retro-orbital intravenous injection” value [2] is reported as “lethal”. For the same compound, the MIC ([3]; ATCCBAA1870) was at most 0.031 µg/mL and the MIC ([3]; ATCCBAA1870, 36° C., 48 h anaerobically) was at most 0.0313 µg/mL.
